Measured values: PubChem BioAssay (NCI)
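Dose response: 5 concentrations. Exposure: 48 h. Format: 96-well plates. Endpoint: linear interpolation; highest concentration if not reached. At the GI50, growth is halved. At the TGI there is no net growth.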

What was measured:
Assay in all cases: inhibition of tumour cell growth, NCI panel, 48 h
[1] = system: TK-10 renal
[2] = system: RXF 393 renal
[3] = system: HCT-116 colon
[4] = system: OVCAR-4 ovarian
[5] = system: SK-OV-3 ovarian
[6] = system: SF-539 CNS
[7] = system: PC-3 prostate
[8] = system: OVCAR-3 ovarian
[9] = system: LOX IMVI melanoma
[10] = system: MOLT-4 leukemia
[11] = system: DU-145 prostate
[12] = system: M14 melanoma
[13] = system: SW-620 colon
[14] = system: A549 NSCLC
[15] = system: SK-MEL-2 melanoma
[16] = system: NCI-H522 lung
[17] = system: SNB-19 CNS
[18] = system: KM12 colon
[19] = system: HCC-2998 colon
[20] = system: IGROV1 ovarian
[21] = system: OVCAR-5 ovarian
[22] = system: ACHN renal
[23] = system: NCI/ADR-RES ovarian
[24] = system: HL-60(TB) leukemia
[25] = system: NCI-H226 lung
[26] = system: CCRF-CEM leukemia
[27] = system: A498 renal
[28] = system: HOP-92 NSCLC
[29] = system: HCT-15 colon
[30] = system: NCI-H460 lung
[31] = system: NCI-H23 lung
[32] = system: OVCAR-8 ovarian
[33] = system: SNB-75 CNS
[34] = system: SK-MEL-5 melanoma
[35] = system: UACC-257 melanoma
[36] = system: BT-549 breast
[37] = system: HS 578T breast
[38] = system: MDA-MB-231 breast
[39] = system: UACC-62 melanoma
[40] = system: MCF7 breast
[41] = system: EKVX NSCLC
[42] = system: HOP-62 NSCLC
[43] = system: UO-31 renal
[44] = system: HT29 colon
[45] = system: U251 CNS
[46] = system: 786-0 renal
[47] = system: T-47D breast
[48] = system: SN12C renal
[49] = system: MALME-3M melanoma
[50] = system: SK-MEL-28 melanoma
[51] = system: SF-295 CNS
[52] = system: SR leukemia
[53] = system: MDA-MB-435
[54] = system: SF-268 CNS
[55] = system: K-562 leukemia
[56] = system: CAKI-1 renal
[57] = system: COLO 205 colon
[58] = system: RPMI-8226 leukemia

COc1cc(-c2nn(-c3ccc(NC(=O)NCCCNC(=O)c4ccccc4)cc3)cc2-c2ccncc2)ccc1Cl
GI50 [1]: 2.3 µM
TGI [1]: 8.01 µM
GI50 [2]: 0.293 µM
TGI [2]: 0.917 µM
GI50 [3]: 0.361 µM
TGI [3]: 5.51 µM
GI50 [4]: 1 µM
TGI [4]: > 100 µM
GI50 [5]: 0.752 µM
TGI [5]: > 100 µM
GI50 [6]: 0.266 µM
TGI [6]: 0.843 µM
GI50 [7]: 0.436 µM
TGI [7]: > 100 µM
GI50 [8]: 0.252 µM
TGI [8]: 0.647 µM
GI50 [9]: 0.597 µM
TGI [9]: 8.07 µM
GI50 [10]: 0.905 µM
TGI [10]: > 100 µM
GI50 [11]: 0.385 µM
TGI [11]: > 100 µM
GI50 [12]: 0.311 µM
TGI [12]: 1.84 µM
GI50 [13]: 0.455 µM
TGI [13]: > 100 µM
GI50 [14]: 3.23 µM
TGI [14]: 77.6 µM
GI50 [15]: 0.637 µM
TGI [15]: 5.22 µM
GI50 [16]: 0.231 µM
TGI [16]: 3.1 µM
GI50 [17]: 0.846 µM
TGI [17]: > 100 µM
GI50 [18]: 0.39 µM
TGI [18]: 2 µM
GI50 [19]: 1.21 µM
TGI [19]: 8.81 µM
GI50 [20]: 0.843 µM
TGI [20]: > 100 µM
GI50 [21]: 1.1 µM
TGI [21]: > 100 µM
GI50 [22]: 1.64 µM
TGI [22]: 5.3 µM
GI50 [23]: 3.78 µM
TGI [23]: > 100 µM
GI50 [24]: 0.358 µM
TGI [24]: 1.2 µM
GI50 [25]: 1.47 µM
TGI [25]: > 100 µM
GI50 [26]: 0.385 µM
TGI [26]: > 100 µM
GI50 [27]: 0.467 µM
TGI [27]: 5.15 µM
GI50 [28]: 1.26 µM
TGI [28]: 8.1 µM
GI50 [29]: 1.94 µM
TGI [29]: > 100 µM
GI50 [30]: 0.404 µM
TGI [30]: 9.59 µM
GI50 [31]: 0.665 µM
TGI [31]: > 100 µM
GI50 [32]: 0.635 µM
TGI [32]: 12.7 µM
GI50 [33]: 1.12 µM
TGI [33]: > 100 µM
GI50 [34]: 0.362 µM
TGI [34]: 1.43 µM
GI50 [35]: 2.37 µM
TGI [35]: 23.7 µM
GI50 [36]: 0.887 µM
TGI [36]: 5.33 µM
GI50 [37]: 0.428 µM
TGI [37]: > 100 µM
GI50 [38]: 1.14 µM
TGI [38]: > 100 µM
GI50 [39]: 0.543 µM
TGI [39]: 3.48 µM
GI50 [40]: 0.338 µM
TGI [40]: > 100 µM
GI50 [41]: 1.29 µM
TGI [41]: > 100 µM
GI50 [42]: 0.46 µM
TGI [42]: > 100 µM
GI50 [43]: 1.56 µM
TGI [43]: 11.3 µM
GI50 [44]: 0.378 µM
TGI [44]: 2.16 µM
GI50 [45]: 0.561 µM
TGI [45]: 21.9 µM
GI50 [46]: 0.493 µM
TGI [46]: 2.86 µM
GI50 [47]: 0.611 µM
TGI [47]: 14 µM
GI50 [48]: 0.718 µM
TGI [48]: > 100 µM
GI50 [49]: 0.457 µM
TGI [49]: 2.88 µM
GI50 [50]: 1.34 µM
TGI [50]: > 100 µM

Cc1nc2ccccc2c(/C=C/c2ccc(Cl)cc2)c1C(=O)/C=C/c1ccc(F)cc1
GI50 [2]: 1.66 µM
TGI [2]: 3.16 µM
GI50 [3]: 0.531 µM
TGI [3]: 2.14 µM
GI50 [6]: 1.76 µM
TGI [6]: 3.25 µM
GI50 [7]: 1.6 µM
TGI [7]: 3.71 µM
GI50 [51]: 1.75 µM
TGI [51]: 3.22 µM
GI50 [8]: 1.46 µM
TGI [8]: 2.8 µM
GI50 [9]: 1.32 µM
TGI [9]: 2.61 µM
GI50 [10]: 1.19 µM
TGI [10]: 7.2 µM
GI50 [11]: 1.68 µM
TGI [11]: 3.65 µM
GI50 [52]: 0.704 µM
TGI [52]: 5.47 µM
GI50 [13]: 1.42 µM
TGI [13]: 3.43 µM
GI50 [53]: 1.55 µM
TGI [53]: 3.21 µM
GI50 [15]: 1.87 µM
TGI [15]: 3.79 µM
GI50 [16]: 1.44 µM
TGI [16]: 4.04 µM
GI50 [17]: 1.54 µM
TGI [17]: 2.89 µM
GI50 [54]: 1.52 µM
TGI [54]: 3.04 µM
GI50 [19]: 1.53 µM
TGI [19]: 3.01 µM
GI50 [55]: 1.2 µM
TGI [55]: > 100 µM
GI50 [20]: 1.15 µM
TGI [20]: 2.69 µM
GI50 [21]: 1.63 µM
TGI [21]: 3.49 µM
GI50 [22]: 1.51 µM
TGI [22]: 2.83 µM
GI50 [23]: 1.85 µM
TGI [23]: 4.11 µM
GI50 [24]: 1.57 µM
TGI [24]: 4.13 µM
GI50 [25]: 1.68 µM
TGI [25]: 3.57 µM
GI50 [26]: 1.26 µM
TGI [26]: > 100 µM
GI50 [56]: 1.11 µM
TGI [56]: 2.31 µM
GI50 [27]: 1.79 µM
TGI [27]: 3.22 µM
GI50 [28]: 1.19 µM
TGI [28]: 2.89 µM
GI50 [29]: 1.06 µM
TGI [29]: 2.91 µM
GI50 [30]: 1.39 µM
TGI [30]: 2.85 µM
GI50 [32]: 1.62 µM
TGI [32]: 4.16 µM
GI50 [33]: 1.16 µM
TGI [33]: 2.37 µM
GI50 [34]: 1.62 µM
TGI [34]: 2.97 µM
GI50 [37]: 2.17 µM
TGI [37]: 5.94 µM
GI50 [57]: 2.08 µM
TGI [57]: 4.91 µM
GI50 [58]: 1.37 µM
TGI [58]: 4.48 µM
GI50 [38]: 1.92 µM
TGI [38]: 4.77 µM
GI50 [39]: 1.49 µM
TGI [39]: 2.91 µM
GI50 [40]: 0.781 µM
TGI [40]: 4.32 µM
GI50 [42]: 1.89 µM
TGI [42]: 3.71 µM
GI50 [43]: 1.15 µM
TGI [43]: 2.36 µM
GI50 [44]: 1.21 µM
TGI [44]: 7.54 µM
GI50 [45]: 1.44 µM
TGI [45]: 2.92 µM
GI50 [46]: 1.78 µM
TGI [46]: 3.48 µM
GI50 [47]: 1.1 µM
TGI [47]: 2.86 µM
GI50 [48]: 1.81 µM
TGI [48]: 4.07 µM
GI50 [49]: 1.64 µM
TGI [49]: 3.01 µM
GI50 [50]: 1.81 µM
TGI [50]: 3.35 µM

N=C1S/C(=C/c2ccc(-c3ccc4c(c3)C(=O)NC4=O)o2)C(=O)N1c1ccc(Br)cc1
GI50 [1]: 3.32 µM
TGI [1]: > 100 µM
GI50 [3]: 3.65 µM
TGI [3]: > 100 µM
GI50 [5]: 6.19 µM
TGI [5]: > 100 µM
GI50 [6]: > 100 µM
TGI [6]: > 100 µM
GI50 [51]: 2.96 µM
TGI [51]: 8.95 µM
GI50 [10]: > 100 µM
TGI [10]: > 100 µM
GI50 [15]: 11.7 µM
TGI [15]: 41.8 µM
GI50 [16]: 3.63 µM
TGI [16]: > 100 µM
GI50 [17]: > 100 µM
TGI [17]: > 100 µM
GI50 [54]: 6.3 µM
TGI [54]: > 100 µM
GI50 [19]: > 100 µM
TGI [19]: > 100 µM
GI50 [20]: 15.9 µM
TGI [20]: > 100 µM
GI50 [21]: > 100 µM
TGI [21]: > 100 µM
GI50 [23]: > 100 µM
TGI [23]: > 100 µM
GI50 [24]: > 100 µM
TGI [24]: > 100 µM
GI50 [28]: 1.81 µM
TGI [28]: 8.56 µM
GI50 [33]: 2.17 µM
TGI [33]: 6.76 µM
GI50 [34]: 3.48 µM
TGI [34]: > 100 µM
GI50 [36]: 4.31 µM
TGI [36]: 56 µM
GI50 [37]: 7.5 µM
TGI [37]: > 100 µM
GI50 [57]: > 100 µM
TGI [57]: > 100 µM
GI50 [58]: 4.2 µM
TGI [58]: > 100 µM
GI50 [38]: 4.21 µM
TGI [38]: > 100 µM
GI50 [40]: 3.68 µM
TGI [40]: > 100 µM
GI50 [43]: > 100 µM
TGI [43]: > 100 µM
GI50 [45]: 2.91 µM
TGI [45]: 8.23 µM
GI50 [46]: 3.45 µM
TGI [46]: > 100 µM
GI50 [47]: 2.92 µM
TGI [47]: > 100 µM
